{"source": "patent US11110209B2", "about": "“Intraluminal therapy system for gastrointestinal infections” (MACKAY MEDICAL FOUNDATION THE PRESBYTERIAN CHURCH IN TAIWAN …, priority 2017, dated 2021)", "assay": "Clinical study: gastric juice pH after irrigation", "format": "in vivo", "conditions": "patients; acetylcysteine (12 mg/ml) solution irrigation of gastric mucosa after two tablets of sublingual Takepron", "protocol": "Ten patients having H. pylori infection without prior eradication therapy were enrolled. Before the intraluminal therapy, two tablets of proton pump inhibitor (Takepron) were sublingually administered to the patient. Using the system of the invention, the gastric mucosa was irrigated with acetylcysteine (12 mg/ml) solution to remove the acid and mucous on the gastric mucosa. The pH levels before and after irrigation were measured. The acidity of the gastric juice could be well controlled at around pH 5.0 after irrigation. The total dosage of acetylcysteine was less than 140 mg/kg. Then amoxicillin, metronidazole, clarithromycin, sucrate gel and distilled water were mixed to form a complex. […] The viscosities of the complexes were shown below."}
{"smiles": "CC(=O)N[C@@H](CS)C(=O)O", "note": "[acetylcysteine]", "values": [{"measurement": "pH of gastric juice after irrigation", "result": "~5.0", "unit": "pH"}]}
